Test results published in the CheMixHub viscosity set.

Assay: xn = mol fraction of the nth substance listed

C1CCOC1 + O
Details	viscosity [mPa·s]
298 K, 101 kPa, x2 = 0.217	0.5842
298 K, 101 kPa, x2 = 0.284	0.6433
298 K, 101 kPa, x2 = 0.331	0.6715
298 K, 101 kPa, x2 = 0.3845	0.7352
298 K, 101 kPa, x2 = 0.4994	0.9349
298 K, 101 kPa, x2 = 0.6293	1.22
298 K, 101 kPa, x2 = 0.8001	1.681
298 K, 101 kPa, x2 = 0.8523	1.745
298 K, 101 kPa, x2 = 0.9073	1.658
298.15 K, 101 kPa, x1 = 0.02	1.157
298.15 K, 101 kPa, x1 = 0.05	1.464
298.15 K, 101 kPa, x1 = 0.07	1.62
298.15 K, 101 kPa, x1 = 0.1001	1.749
298.15 K, 101 kPa, x1 = 0.1199	1.79
298.15 K, 101 kPa, x1 = 0.1499	1.796
298.15 K, 101 kPa, x1 = 0.1699	1.783
298.15 K, 101 kPa, x1 = 0.2	1.723
298.15 K, 101 kPa, x1 = 0.2199	1.671
298.15 K, 101 kPa, x1 = 0.25	1.586
298.15 K, 101 kPa, x1 = 0.2701	1.538
298.15 K, 101 kPa, x1 = 0.3002	1.445
298.15 K, 101 kPa, x1 = 0.3499	1.313
298.15 K, 101 kPa, x1 = 0.3999	1.172
298.15 K, 101 kPa, x1 = 0.4499	1.039
298.15 K, 101 kPa, x1 = 0.5001	0.9437
298.15 K, 101 kPa, x1 = 0.5998	0.7744
298.15 K, 101 kPa, x1 = 0.7001	0.65
298.15 K, 101 kPa, x1 = 0.8001	0.5622
298.15 K, 101 kPa, x1 = 0.9	0.4979
298.15 K, 101 kPa, x2 = 0.31	0.6564
298.15 K, 101 kPa, x2 = 0.5	0.9237
298.15 K, 101 kPa, x2 = 0.63	1.224
298.15 K, 101 kPa, x2 = 0.68	1.399
298.15 K, 101 kPa, x2 = 0.73	1.49
298.15 K, 101 kPa, x2 = 0.77	1.582
298.15 K, 101 kPa, x2 = 0.8	1.678
298.15 K, 101 kPa, x2 = 0.83	1.701
298.15 K, 101 kPa, x2 = 0.86	1.732
298.15 K, 101 kPa, x2 = 0.9	1.68
298.15 K, 101 kPa, x2 = 0.94	1.49
298.15 K, 101 kPa, x2 = 0.97	1.202
298.15 K, 101.32 kPa, x1 = 0.0423	1.362
298.15 K, 101.32 kPa, x1 = 0.0812	1.647
298.15 K, 101.32 kPa, x1 = 0.1809	1.741
298.15 K, 101.32 kPa, x1 = 0.3559	1.285
298.15 K, 101.32 kPa, x1 = 0.5248	0.892
298.15 K, 101.32 kPa, x1 = 0.7342	0.638
298.15 K, 101.32 kPa, x1 = 0.8468	0.554
298.15 K, 101.32 kPa, x2 = 0.0008	0.47
298.15 K, 101.33 kPa, x2 = 0.111	0.515
298.15 K, 101.33 kPa, x2 = 0.197	0.565
298.15 K, 101.33 kPa, x2 = 0.3027	0.65
298.15 K, 101.33 kPa, x2 = 0.4036	0.763
298.15 K, 101.33 kPa, x2 = 0.5028	0.916
298.15 K, 101.33 kPa, x2 = 0.6047	1.129
298.15 K, 101.33 kPa, x2 = 0.7032	1.394
298.15 K, 101.33 kPa, x2 = 0.8017	1.651
298.15 K, 101.33 kPa, x2 = 0.9013	1.665
303.15 K, 101 kPa, x1 = 0.02	1.025
303.15 K, 101 kPa, x1 = 0.05	1.276
303.15 K, 101 kPa, x1 = 0.07	1.398
303.15 K, 101 kPa, x1 = 0.1001	1.514
303.15 K, 101 kPa, x1 = 0.1199	1.549
303.15 K, 101 kPa, x1 = 0.1499	1.558
303.15 K, 101 kPa, x1 = 0.1699	1.55
303.15 K, 101 kPa, x1 = 0.2	1.504
303.15 K, 101 kPa, x1 = 0.2199	1.466
303.15 K, 101 kPa, x1 = 0.25	1.395
303.15 K, 101 kPa, x1 = 0.2701	1.358
303.15 K, 101 kPa, x1 = 0.3002	1.281
303.15 K, 101 kPa, x1 = 0.3499	1.174
303.15 K, 101 kPa, x1 = 0.3999	1.056
303.15 K, 101 kPa, x1 = 0.4499	0.9408
303.15 K, 101 kPa, x1 = 0.5001	0.8597
303.15 K, 101 kPa, x1 = 0.5998	0.7127
303.15 K, 101 kPa, x1 = 0.7001	0.6034
303.15 K, 101 kPa, x1 = 0.8001	0.5252
303.15 K, 101 kPa, x1 = 0.9	0.4699
303.15 K, 101.33 kPa, x1 = 0.0971	1.444
303.15 K, 101.33 kPa, x1 = 0.1497	1.523
303.15 K, 101.33 kPa, x1 = 0.2011	1.477
303.15 K, 101.33 kPa, x1 = 0.3057	1.257
303.15 K, 101.33 kPa, x1 = 0.3979	1.04
303.15 K, 101.33 kPa, x1 = 0.4978	0.8602
303.15 K, 101.33 kPa, x1 = 0.6026	0.7189
303.15 K, 101.33 kPa, x1 = 0.7025	0.6137
303.15 K, 101.33 kPa, x1 = 0.8003	0.5413
303.15 K, 101.33 kPa, x1 = 0.8978	0.4813
308.15 K, 101 kPa, x1 = 0.02	0.9079
308.15 K, 101 kPa, x1 = 0.05	1.124
308.15 K, 101 kPa, x1 = 0.07	1.227
308.15 K, 101.33 kPa, x1 = 0.0971	1.256
308.15 K, 101.33 kPa, x1 = 0.1497	1.329
308.15 K, 101.33 kPa, x1 = 0.2011	1.301
308.15 K, 101.33 kPa, x1 = 0.3057	1.12
308.15 K, 101.33 kPa, x1 = 0.3979	0.9414
308.15 K, 101.33 kPa, x1 = 0.4978	0.7881
308.15 K, 101.33 kPa, x1 = 0.6026	0.6666
308.15 K, 101.33 kPa, x1 = 0.7025	0.5723
308.15 K, 101.33 kPa, x1 = 0.8003	0.5085
308.15 K, 101.33 kPa, x1 = 0.8978	0.4554
313.15 K, 101.33 kPa, x1 = 0.1497	1.171
313.15 K, 101.33 kPa, x1 = 0.2011	1.154
313.15 K, 101.33 kPa, x1 = 0.3057	1.01
313.15 K, 101.33 kPa, x1 = 0.3979	0.8555
313.15 K, 101.33 kPa, x1 = 0.4978	0.724
313.15 K, 101.33 kPa, x1 = 0.6026	0.6175
313.15 K, 101.33 kPa, x1 = 0.7025	0.5361
313.15 K, 101.33 kPa, x1 = 0.8003	0.4788
313.15 K, 101.33 kPa, x1 = 0.8978	0.4306
318.15 K, 101.33 kPa, x1 = 0.0971	0.9839
318.15 K, 101.33 kPa, x1 = 0.1497	1.041
318.15 K, 101.33 kPa, x1 = 0.2011	1.037
318.15 K, 101.33 kPa, x1 = 0.3057	0.9172
318.15 K, 101.33 kPa, x1 = 0.3979	0.7829
318.15 K, 101.33 kPa, x1 = 0.4978	0.6687
318.15 K, 101.33 kPa, x1 = 0.6026	0.576
318.15 K, 101.33 kPa, x1 = 0.7025	0.5036
318.15 K, 101.33 kPa, x1 = 0.8003	0.452
318.15 K, 101.33 kPa, x1 = 0.8978	0.4089
323.15 K, 101.33 kPa, x1 = 0.0971	0.8801
323.15 K, 101.33 kPa, x1 = 0.1497	0.9355
323.15 K, 101.33 kPa, x1 = 0.2011	0.9367
323.15 K, 101.33 kPa, x1 = 0.3057	0.8382
323.15 K, 101.33 kPa, x1 = 0.3979	0.7216
323.15 K, 101.33 kPa, x1 = 0.4978	0.621
323.15 K, 101.33 kPa, x1 = 0.6026	0.5365
323.15 K, 101.33 kPa, x1 = 0.7025	0.4716
323.15 K, 101.33 kPa, x1 = 0.8003	0.4277
323.15 K, 101.33 kPa, x1 = 0.8978	0.3879
